Experimental data: US6531464B1, “Methods for the treatment of neurodegenerative disorders using substituted phenanthridinone derivatives” (Inotek Pharmaceutical Corporation, priority 1999, dated 2003)

What was measured:
Format in all cases: cell-based
PARS [1] = molecular target: T1, PARS (Mus musculus, UniProt P11103); assay: High glucose induced PARS activation in murine lung microvascular endothelial cells; parameters: endogenous in cells; host or cells: primary lung microvascular endothelial cells from wild-type mice; conditions: 30 mM glucose, 6 hours; PJ34 100 nM-3 μM, MnTBAP 100 μM, carboxy-PTIO 300 μM, L-NMA 3 mM, L-NAME 3 mM
Description: In brief, lung microvascular endothelial cells were isolated from wild-type (+/+) and PARS knockout (−/−) mice. Cells were maintained in F12/DMEM (1:1) medium supplemented with endothelial cell growth supplement (100 μg/l heparin and 10% fetal calf serum).
PARS activation was measured in endothelial cells seeded in 6 well tissue culture plates pre-coated with endothelial cell attachment factor (Sigma). Medium was replaced by regular- (see above) or FCS-free HUVEC medium containing 5 mM D-glucose 12 h before the experiment. […] After 10 min, cells were scraped, transferred into Eppendorf tubes and the reaction was stopped by trichloroacetic acid (TCA). Pellets were washed three times in 5% TCA and then solubilized in 500 μl 2% SDS/0.1 N NaOH at 37° C. Contents of the tubes were added to 7 ml ScintiSafe Plus scintillation liquid and radioactivity was measured in a liquid scintillation counter (Wallac, Gaithersburg, Md.). Activity was normalized for protein content.
Target sequence in this assay (P11103 whole entry): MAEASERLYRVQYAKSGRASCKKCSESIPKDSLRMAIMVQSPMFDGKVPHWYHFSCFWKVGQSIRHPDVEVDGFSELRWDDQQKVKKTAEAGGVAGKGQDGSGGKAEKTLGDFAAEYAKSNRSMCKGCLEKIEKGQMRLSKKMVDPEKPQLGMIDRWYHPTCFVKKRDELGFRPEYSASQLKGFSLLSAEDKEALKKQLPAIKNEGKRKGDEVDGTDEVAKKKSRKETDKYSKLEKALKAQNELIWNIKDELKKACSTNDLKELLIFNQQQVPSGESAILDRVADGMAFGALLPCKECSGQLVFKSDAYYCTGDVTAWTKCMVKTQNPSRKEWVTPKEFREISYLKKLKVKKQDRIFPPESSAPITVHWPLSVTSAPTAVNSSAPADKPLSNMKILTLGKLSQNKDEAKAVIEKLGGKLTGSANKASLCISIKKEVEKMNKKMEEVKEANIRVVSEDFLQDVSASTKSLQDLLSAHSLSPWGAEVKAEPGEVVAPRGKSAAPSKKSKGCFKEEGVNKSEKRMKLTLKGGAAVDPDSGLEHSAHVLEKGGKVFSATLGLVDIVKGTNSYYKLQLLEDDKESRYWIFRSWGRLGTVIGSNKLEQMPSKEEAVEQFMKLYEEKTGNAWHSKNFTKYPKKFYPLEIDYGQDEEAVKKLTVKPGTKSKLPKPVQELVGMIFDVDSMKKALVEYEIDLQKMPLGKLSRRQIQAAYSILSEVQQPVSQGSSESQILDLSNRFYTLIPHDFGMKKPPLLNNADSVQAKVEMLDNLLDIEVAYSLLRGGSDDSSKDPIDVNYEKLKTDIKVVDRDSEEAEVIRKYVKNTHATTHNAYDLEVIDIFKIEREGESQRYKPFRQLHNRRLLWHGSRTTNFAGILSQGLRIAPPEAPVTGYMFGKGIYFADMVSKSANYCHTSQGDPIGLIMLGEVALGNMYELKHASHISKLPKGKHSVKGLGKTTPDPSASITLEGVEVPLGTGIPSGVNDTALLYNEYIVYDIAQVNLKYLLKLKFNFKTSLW

TNF-α = assay: LPS-stimulated J774 macrophages: TNF-α production; conditions: for production of the pro-inflammatory cytokine TNF-α (in words): J774 macrophages exposed to LPS; for EC50: Mus musculus, J774, LPS 10 μg/ml, 30 min pretreatment 0.1 to 30 μM, measured at 24 h, mean±SEM n=3-6, read-out: Inhibition of TNF-α (J774)
Source text: (§1) In in vitro studies, J774 macrophages were exposed to bacterial lipopolysaccharide (LPS), to induce pro-inflammatory mediator production and cytotoxicity. […] This assay (the LPS-stimulated macrophage) represents an in vitro model of an inflammatory situation. Agents that block inflammatory mediator production in this assay are expected to have anti-inflammatory or immunosuppressive effects in inflammatory or immune diseases.
(§2) The half-maximal inhibitory effect (in μM) of various PJ compounds was assessed under a variety of conditions in immunostimulated J774 macrophages and in peroxynitrite-stimulated thymocytes. Macrophages or thymocytes were first treated with a chosen PJ compound for 30 min at a concentration ranging from 0.1 to 30 μM. The cells were then immunostimulated with LPS (10 μg/ml) or treated with peroxynitrite (30 μM). MIP production in the macrophages was measured at 3 h, TNF and nitric oxide were measured at 24 h, cell viability in the macrophages were measured at 24 h. PARS activation and cell death in thymocytes were measured at 6 h. Measurements of mediator production, PARS activation and cell death were essentially as described in Németh, et al., Eur J Pharmacol 339:215-221, 1997 and Virág and Szabó, Br J Pharmacol, 126: 769-777, 1999. Results in Table 2 are shown as EC50 values (half maximal inhibition of mediator production or restoration of cell viability; in μM): [mean±SEM of n=3-6 determinations].

MIP-1α = assay: LPS-stimulated J774 macrophages: MIP-1α production; conditions: for production of the chemokine MIP-1α (in words): J774 macrophages exposed to LPS; for EC50: Mus musculus, J774, LPS 10 μg/ml, 30 min pretreatment 0.1 to 30 μM, measured at 3 h, mean±SEM n=3-6, read-out: Inhibition of MIP-1α (J774)
Source text: as §1, §2

MIP-2 = assay: LPS-stimulated J774 macrophages: MIP-2 production; conditions: for production of the chemokine MIP-2 (in words): J774 macrophages exposed to LPS; for EC50: Mus musculus, J774, LPS 10 μg/ml, 30 min pretreatment 0.1 to 30 μM, measured at 3 h, mean±SEM n=3-6, read-out: Inhibition of MIP-2 (J774)
Source text: as §1, §2

nitric oxide (nitrite) = assay: LPS-stimulated J774 macrophages: nitric oxide production measured as nitrite; conditions: for production of nitric oxide, measured as nitrite (in words): J774 macrophages exposed to LPS; for EC50: Mus musculus, J774, read-out: Inhibition of Nitrite (J774)
Source text: as §1, §2

J774 macrophages = assay: LPS-stimulated J774 macrophages: cell viability; conditions: for viability of the cells suppressed by LPS exposure (in words): J774 macrophages exposed to LPS; for EC50: Mus musculus, J774, LPS 10 μg/ml, 30 min pretreatment 0.1 to 30 μM, measured at 24 h, mean±SEM n=3-6, read-out: Enhancement of cell Viability (J774)
Source text: as §1, §2

PARS [2] = molecular target: T1, PARS; assay: Peroxynitrite-stimulated thymocytes: PARS activation; conditions: isolated thymocytes exposed to peroxynitrite or hydrogen peroxide
Description: The half-maximal inhibitory effect (in μM) of various PJ compounds was assessed under a variety of conditions in immunostimulated J774 macrophages and in peroxynitrite-stimulated thymocytes. Macrophages or thymocytes were first treated with a chosen PJ compound for 30 min at a concentration ranging from 0.1 to 30 μM. The cells were then immunostimulated with LPS (10 μg/ml) or treated with peroxynitrite (30 μM). MIP production in the macrophages was measured at 3 h, TNF and nitric oxide were measured at 24 h, cell viability in the macrophages were measured at 24 h. PARS activation and cell death in thymocytes were measured at 6 h.
Target sequence in this assay (P11103 2-1013): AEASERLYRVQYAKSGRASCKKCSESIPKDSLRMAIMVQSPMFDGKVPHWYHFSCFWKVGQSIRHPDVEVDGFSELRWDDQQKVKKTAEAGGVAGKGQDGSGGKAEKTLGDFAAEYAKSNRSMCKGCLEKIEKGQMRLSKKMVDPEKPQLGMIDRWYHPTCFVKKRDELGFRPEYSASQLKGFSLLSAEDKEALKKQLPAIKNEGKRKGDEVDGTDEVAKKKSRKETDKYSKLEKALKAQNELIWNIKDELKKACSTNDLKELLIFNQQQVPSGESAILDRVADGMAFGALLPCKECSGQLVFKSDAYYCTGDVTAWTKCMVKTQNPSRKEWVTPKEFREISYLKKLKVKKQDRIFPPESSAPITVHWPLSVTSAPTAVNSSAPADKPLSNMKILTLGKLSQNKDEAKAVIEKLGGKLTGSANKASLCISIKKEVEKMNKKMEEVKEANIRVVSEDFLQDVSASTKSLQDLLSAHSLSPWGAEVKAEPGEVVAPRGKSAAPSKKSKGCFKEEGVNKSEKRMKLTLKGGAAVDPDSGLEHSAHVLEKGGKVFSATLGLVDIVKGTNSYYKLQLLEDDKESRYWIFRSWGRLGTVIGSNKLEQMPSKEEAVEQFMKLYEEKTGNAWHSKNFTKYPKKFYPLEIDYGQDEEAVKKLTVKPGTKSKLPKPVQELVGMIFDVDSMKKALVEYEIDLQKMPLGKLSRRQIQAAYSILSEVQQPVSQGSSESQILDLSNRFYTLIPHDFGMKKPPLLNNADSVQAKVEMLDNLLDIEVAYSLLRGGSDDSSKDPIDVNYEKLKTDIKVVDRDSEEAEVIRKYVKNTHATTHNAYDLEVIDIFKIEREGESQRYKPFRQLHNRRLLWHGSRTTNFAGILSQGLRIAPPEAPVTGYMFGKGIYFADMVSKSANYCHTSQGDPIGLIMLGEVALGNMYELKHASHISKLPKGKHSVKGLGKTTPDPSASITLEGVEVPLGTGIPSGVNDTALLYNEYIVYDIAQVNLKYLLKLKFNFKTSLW

thymocytes = assay: Peroxynitrite-stimulated thymocytes: cell viability; conditions: for EC50: Thymocyte, peroxynitrite 30 μM, 30 min pretreatment 0.1 to 30 μM, measured at 6 h, mean±SEM n=3-6, read-out: Enhancement of cell viability (thymocyte); for oxidant-induced suppression of the viability of the cells (in words): isolated thymocytes exposed to peroxynitrite or hydrogen peroxide
Description: as §2

[3] = LPS 10 μg/ml, 30 min pretreatment 0.1 to 30 μM, measured at 24 h, mean±SEM n=3-6

| Compound | high glucose induced PARP/PARS activation (PARS [1]) | production of the pro-inflammatory cytokine TNF-α (in words) (TNF-α) | EC50 (TNF-α) | production of the chemokine MIP-1α (in words) (MIP-1α) | EC50 (MIP-1α) | production of the chemokine MIP-2 (in words) (MIP-2) | EC50 (MIP-2) | production of nitric oxide, measured as nitrite (in words) (nitric oxide (nitrite)) | EC50 (nitric oxide (nitrite); [3]) | viability of the cells suppressed by LPS exposure (in words) (J774 macrophages) | EC50 (J774 macrophages) | activation of PARS (in words) (PARS [2]) | EC50 (thymocytes) | oxidant-induced suppression of the viability of the cells (in words) (thymocytes) | Inhibition of Nitrite (J774) (nitric oxide (nitrite); [3]) |
| --- | --- | --- | --- | --- | --- | --- | --- | --- | --- | --- | --- | --- | --- | --- | --- |
| COC(=O)[C@@H](N)CCCNC(=N)N[N+](=O)[O-] [L-NAME, N^G-nitro-L-arginine methyl ester] | significantly reduced | – | – | – | – | – | – | – | – | – | – | – | – | – | – |
| CNC(=N)NCCC[C@H](N)C(=O)O [L-NMA, N^G-methyl-L-arginine] | significantly reduced | – | – | – | – | – | – | – | – | – | – | – | – | – | – |
| O=C(O)c1ccc(/C2=C3\C=CC(=N3)/C(c3ccc(C(=O)O)cc3)=c3/cc/c4[n]3[Mn]([Cl])[n]3c2ccc3/C(c2ccc(C(=O)O)cc2)=C2/C=CC(=N2)\C=4c2ccc(C(=O)O)cc2)cc1 [MnTBAP] | attenuated | – | – | – | – | – | – | – | – | – | – | – | – | – | – |
| O=C(CN1CCCCC1)Nc1ccc2[nH]c(=O)c3ccccc3c2c1 [PJ36] | – | inhibited | 11.2 ± 1.1 µM | inhibited | 15.2 ± 2.1 µM | inhibited | 21.2 ± 2.7 µM | inhibited | 25.4 ± 2.9 µM | restored the viability | 20.2 ± 2.3 µM | inhibited | 0.3 ± 0.1 µM | prevented | – |
| O=C(CN1CCOCC1)Nc1ccc2[nH]c(=O)c3ccccc3c2c1 [PJ38] | – | inhibited | 6.2 ± 0.42 µM | inhibited | 11.3 ± 1.4 µM | inhibited | 14.9 ± 1.3 µM | inhibited | 20.2 ± 1.5 µM | restored the viability | 22.1 ± 2.7 µM | inhibited | 0.4 ± 0.2 µM | prevented | – |
| CCN(CC)CC(=O)Nc1ccc2[nH]c(=O)c3ccccc3c2c1 [PJ44] | – | inhibited | 11.1 ± 0.67 µM | inhibited | 10.2 ± 0.95 µM | inhibited | 22.4 ± 1.2 µM | inhibited | – | restored the viability | 16.2 ± 1.9 µM | inhibited | 0.2 ± 0.1 µM | prevented | No effect |
| CN1CCN(CC(=O)Nc2ccc3[nH]c(=O)c4ccccc4c3c2)CC1 [PJ46] | – | inhibited | 9.2 ± 0.88 µM | inhibited | > 30 µM | inhibited | > 30 µM | inhibited | > 30 µM | restored the viability | > 30 µM | inhibited | 1.3 ± 0.3 µM | prevented | – |
| CC1(C)N([O])C(c2ccc(C(=O)O)cc2)=[N+]([O-])C1(C)C [carboxy-PTIO] | attenuated | – | – | – | – | – | – | – | – | – | – | – | – | – | – |
